# Test results published in US20220323591A1, “HEPARIN NANO DRUG CARRIER SYSTEM LOADED WITH AMINO ANTI-TUMOR DRUG AND PREPARATION METHOD THEREOF” (NANJING KING-FRIEND BIOCHEMICAL PHARMACEUTICAL CO., LTD., priority 2020, published 2022).
# Columns and labels:
# [1] = system: 4T1 breast cancer xenograft tumors; assay: In vivo experiment of breast cancer cells, daunorubicin nano drug carrier systems; conditions: 3 mg/kg via caudal veins, once every three days, 4 times; 4T1 in BALB/c mice
# Experimental: Anti-tumor effects of nanoparticles in vivo are studied in BALB/c mice with 4T1 breast cancer xenograft tumors. Free daunorubicin (Group I), daunorubicin-Py-PEG-HP (Group II) and daunorubicin-Mal-PEG-HP (Group III) are administered via caudal veins at a dose of 3 mg/kg, for once every three days and in total 4 times, with the free daunorubicin group (Group I) as the control.
# [2] = system: acute promyelocytic leukemia (HL-60) cells; assay: Uptake experiment of leukemia cells; format: cell-based; conditions: 1×10^5/ml
# Experimental: An uptake experiment of free daunorubicin, daunorubicin-Py-PEG-HP and daunorubicin-Mal-PEG-HP with acute promyelocytic leukemia (HL-60) cells: the concentration of HL-60 cells is adjusted to 1×10^5/ml, and the cells are added into a 24 -well plate with 1 ml per well; a certain concentration of pure DNR solution and a certain concentration of DNR-NP suspension are added into a culture plate, and cultured for a certain time, then the cells are taken out at five time points (30 min, 60 min, 90 min, 120 min and 180 min) respectively; centrifugation is performed at 4° C. under 1000 rpm for 5 min, and the cells are collected, and then washed twice using a RPM11640 medium added with serum; the cells are lysed with 1.5 ml of 50 μg/ml protease K and a 1% SDS solution, with continuous shaking performed at 37° C. for 12 hours, and a cell extract is collected; and the drug content in the cells is calculated by a fluorescence intensity standard curve.
# [3] = system: xenotransplantation 4T1 tumor model; assay: In vivo experiment of breast cancer cells, lenalidomide and lapatinib nano drug carrier systems; set-up: species or system BALB/c mice; conditions: 4 mg/kg via caudal veins, once every two days, 5 times; normal saline as control
# Experimental: The anti-tumor effect of nanoparticles in vivo is based on investigation of a xenotransplantation 4T1 tumor model established in the BALB/c mice. Each of groups represents normal saline (Group I), free lenalidomide (Group II), lenalidomide-Py-PEG-HP (Group III), […] lenalidomide-Mal-PEG-HP (Group IV), free lapatinib (Group V), lapatinib-Py-PEG-HP (Group VI) and lapatinib-Mal-PEG-HP (Group VII) respectively, wherein they are administrated via caudal veins at a dosage of 4 mg/kg, once every two days, with a total of 5 times. As shown in the diagram below, the tumor development is detected on the second day after administration.
# [4] = system: 5T33 multiple myeloma cells; assay: In vivo experiment of multiple myeloma; set-up: species or system mice
# Experimental: Thirty 6-week-old mice are divided into three groups, which are administrated with free lenalidomide (Group I), lenalidomide-Py-PEG-HP (Group II) and lenalidomide-Mal-PEG-HP (Group III) respectively. Male and female animals in each group are halved, and there is no statistically significant difference in body weight among animals in each group. The dosage of free lenalidomide group is 0.1 ml/kg body weight/day, and the dosage of lenalidomide-Py-PEG-HP group and lenalidomide-Mal-PEG-HP group is 20 mg/kg (body weight/day).
# One week after injection of 1,000,000 5T33 multiple myeloma cells into the tail veins of mice, drugs are administered subcutaneously according to the above scheme, for three times a week. During the administration period, the animals are weighed every day, and the dosage on that day is determined according to the weight, and the animals are continuously administered until death of the mice. The venous blood of mice is collected and stored every week, and the time of death of mice is recorded.
# According to the statistical test, there is significant difference in the survival time of mice when free lenalidomide group is compared with heparin nano drug carrier system (P<0.05), as shown in Table 1. There is significant difference in the tumor load in serum of mice when the free lenalidomide group is compared with heparin nano drug carrier system (P<0.05), as shown in Table 2.
Structure (SMILES),anti-tumor effect (tumor volume) [1],uptake efficiency [2],anti-tumor effect (tumor development) [3],"Average survival days of mice after drug injection ([4]; 5T33 mice, subcutaneous, three times a week, free lenalidomide 0.1 ml/kg body weight/day, conjugates 20 mg/kg)","Average tumor load in serum of mice after drug injection ([4]; 1 day, mouse LGg2b concentration)",Average tumor load in serum of mice after drug injection ([4]; 8 days),Average tumor load in serum of mice after drug injection ([4]; 15 days),Average tumor load in serum of mice after drug injection ([4]; 22 days),Average tumor load in serum of mice after drug injection ([4]; 29 days)
"COc1cccc2c1C(=O)c1c(O)c3c(c(O)c1C2=O)C[C@@](O)(C(C)=O)C[C@@H]3O[C@H]1C[C@H](N)[C@H](O)[C@H](C)O1 [free daunorubicin, daunorubicin]",insignificant anti-tumor activity,16%,,,,,,,
"CS(=O)(=O)CCNCc1ccc(-c2ccc3ncnc(Nc4ccc(OCc5cccc(F)c5)c(Cl)c4)c3c2)o1 [free lapatinib, lapatinib]",,,have the anti-tumor activity,,,,,,
"Nc1cccc2c1CN(C1CCC(=O)NC1=O)C2=O (stereo not shown) [free lenalidomide, lenalidomide]",,,have the anti-tumor activity,35 days,125.3 µg/mL,206.5 µg/mL,335.2 µg/mL,611.4 µg/mL,864.1 µg/mL
